Results from US9592225B2, “Crystalline N-[5-(aminosulfonyl)-4-methyl-1,3-thiazol-2-yl]-N-methyl-2-[4-(2-pyridinyl)phenyl]acetamide mono mesylate monohydrate having a specific particle size distribution range and a specific surface area range for use in pharmaceutical formulations” (AICURIS ANTI-INFECTIVE CURES GMBH, priority 2011, dated 2017).

Key:
[1] = system: HSV; test: Murine HSV skin infection model; format: in vivo; details: oral doses of 5 mg/kg or higher once daily for four days; data not shown
Experimental: To assess the pharmacokinetic/pharmacodynamic profile the effective dose of the free base of N-[5-(aminosulfonyl)-4-methyl-1,3-thiazol-2-yl]-N-methyl-2-[4-(2-pyridinyl)phenyl]-acetamide was validated in a murine HSV skin infection model and associated plasma concentrations were determined (data not shown).
(§1) In healthy male volunteers these plasma concentrations were covered by a single dose of 40 mg as free base equivalent to the crystalline mono mesylate monohydrate salt of N-[5-(aminosulfonyl)-4-methyl-1,3-thiazol-2-yl]-N-methyl-2-[4-(2-pyridinyl)phenyl]acetamide (see FIG. 10) and at steady state by daily doses of 25 mg as free base equivalent (see FIG. 11) for 21 days.

[2] = Safety and tolerability in phase I trials; format: in vivo, human; details: healthy male volunteers, single and multiple dose, up to the highest dose tested
Experimental: The results were compared with the effective concentration of the free base of N-[5-(aminosulfonyl)-4-methyl-1,3-thiazol-2-yl]-N-methyl-2-[4-(2-pyridinyl)phenyl]acetamide in cell culture and correlated to exposures reached in healthy male volunteers in single and multiple dose phase I trials (see FIGS. 9-13).
as §1

[3] = Thermostability; format: physicochemical; details: compared to the mesylate salt
Excerpt: A clear advantage of the N-[5-(aminosulfonyl)-4-methyl-1,3-thiazol-2-yl]-N-methyl-2-[4-(2-pyridinyl)phenyl]acetamide mono mesylate monohydrate, wherein the PSD, PSR and SSA are as defined herein, is its proven long-term stability. Therefore, the inventive N-[5-(aminosulfonyl)-4-methyl-1,3-thiazol-2-yl]-N-methyl-2-[4-(2-pyridinyl)-phenyl]acetamide mono mesylate monohydrate, which is characterized by the PSD, PSR and SSA as disclosed herein, is better suited for the preparation of long-term stable tablets compared to the free base form of N-[5-(aminosulfonyl)-4-methyl-1,3-thiazol-2-yl]-N-methyl-2-[4-(2-pyridinyl)phenyl]acetamide.

[4] = Single-dose escalation and pharmacokinetics in human volunteers; format: in vivo
Excerpt: Exposure of the free base form of N-[5-(aminosulfonyl)-4-methyl-1,3-thiazol-2-yl]-N-methyl-2-[4-(2-pyridinyl)-phenyl]acetamide to the human body may be measured by high pressure liquid chromatography (HPLC) by looking at different pharmacokinetic parameters in suitable bodily fluids such as for instance blood plasma and urine, the most common parameters being the Cmax, the so-called area under the curve (AUC), and the terminal half-life (t1/2Z). Hereto, the person skilled in the art understands that said parameters are determined by using adequate bioanalytical methods with adequate sensitivity, specificity, ruggedness, stability and repeatability, as for instance a qualified liquid chromatography triple quad mass spectrometry based method coupled with a suitable extraction method for the separation of the analyte from, e.g. the blood plasma.
Therefore, pharmacokinetic studies in human subjects were undertaken following both single and multiple dose administrations of the crystalline mono mesylate monohydrate salt of N-[5-(aminosulfonyl)-4-methyl-1,3-thiazol-2-yl]-N-methyl-2-[4-(2-pyridinyl)phenyl]-acetamide, wherein the particle size distribution is preferably defined by d(0.1) from 2 to 100 μm, d(0.5) from 30 to 210 μm and d(0.9) from 70 to 400 μm with a specific surface area of the particles less than 1.0 m^2/g, and more preferably defined by d(0.1) from 10 to 75 μm, d(0.5) from 100 to 175 μm, d(0.9) from 200 to 350 μm with a specific surface area of the particles less than 0.3 m^2/g.
Single oral doses of the crystalline mono mesylate monohydrate salt of N-[5-(aminosulfonyl)4methyl1,3thiazol-2-yl]-N-methyl-2-[4-(2-pyridinyl)phenyl]acetamide using the formulations according to example 2, Table 2, were administered to six volunteers per dose step. The overall shape of the plasma concentrations vs. time profiles were similar across all doses (see FIG. 9 and FIG. 12). […]
AUC0-∞: Area under the analyte vs. time concentration from time of administration up to infinity, calculated as
[formula] wherein A0-last is defined as the area under the analyte vs. time concentration up to time of the last qualifiable concentration, calculated by linear up/log down summation and Clast is defined as last quantifiable observed analyte concentration. λz is the apparent terminal elimination rate constant, determined by linear regression of terminal points of In-linear analyte concentration-time curve.
Cmax is the maximal observed analyte concentration and tmax is the time to reach Cmax; t1/2z is defined as the apparent terminal elimination half-life, calculated as
MRT: Mean Residence Time; calculated AUMC divided by AUC, wherein AUMC is the area under the first moment of the concentration-time curve from zero up to ∞ with extrapolation of the terminal phase and AUC is the area under the concentration-time curve from zero up to ∞ with extrapolation of the terminal phase. […]

[5] = Multiple-dose escalation and steady-state pharmacokinetics in healthy volunteers; format: in vivo, human; details: for AUGτ: day 21 steady state, n=12
Excerpt: For the three doses of the mono mesylate monohydrate salt of N-[5-(aminosulfonyl)-4-methyl-1,3-thiazol-2-yl]-N-methyl-2-[4-(2-pyridinyl)phenyl]acetamide in formulation according to example 1, Table 2, wherein the particle size distribution is preferably defined by d(0.1) from 2 to 100 μm, d(0.5) from 30 to 210 μm and d(0.9) from 70 to 400 μm with a specific surface area of the particles less than 1.0 m^2/g, and more preferably defined by d(0.1) from 10 to 75 μm, d(0.5) from 100 to 175 μm, d(0.9) from 200 to 350 μm with a specific surface area of the particles less than 0.3 m^2/g, investigated (5, 25, and 100 mg as free base equivalent; once per day oral administration, […]), the individual concentration-time curves of the free base N-[5-(aminosulfonyl)-4-methyl-1,3-thiazol-2-yl]Nmethyl-2-[4-(2-pyridinyl)phenyl]acetamide at day 1 (after the first administration) were very similar in their general shape and slope to those profiles obtained in the single dose escalation trial (see Example 6).
At steady state, there was a low inter-individual variability of minimal or “trough” concentrations with CVs (coefficient of variations) between 16.7 and 21.7% (day 21). For all doses, the individual and mean concentration-time curves of the free base of N-[5-(aminosulfonyl)-4-methyl-1,3-thiazol-2-yl]-N-methyl-2-[4-(2-pyridinyl)phenyl]acet-amide at day 21 were very similar in their shape and slope to those profiles obtained at day 1.
Table 10: Steady state pharmacokinetic parameters of the free base N-[5-(aminosulfonyl)-4-methyl-1,3-thiazol-2-yl]-N-methyl-2-[4-(2-pyridinyl)phenyl]acetamide at day 21 after daily administrations of 5, 25, or 100 mg as free base equivalent of the mono mesylate monohydrate salt of N-[5-(aminosulfonyl)-4-methyl-1,3-thiazol-2-yl]-N-methyl-2-[4-(2-pyridinyl)phenyl]acetamide in formulation according to example 2, Table 2, wherein the particle size distribution is preferably defined by d(0.1) from 2 to 100 μm, d(0.5) from 30 to 210 μm and d(0.9) from 70 to 400 μm with a specific surface area of the particles less than 1.0 m^2/g, and more preferably defined by d(0.1) from 10 to 75 μm, d(0.5) from 100 to 175 μm, d(0.9) from 200 to 350 μm with a specific surface area of the particles less than 0.3 m^2/g, to healthy volunteers (n=12 per dose).

thermostability [3] | relation of maximum plasma concentrations to dose ([4]; single doses from 5 mg to 400 mg as free base equivalent) | relation of AUC0-∞ to dose ([4]; single doses from 5 mg to 480 mg as free base equivalent) | mean maximum blood plasma concentration (mean Cmax) of the free base ([4]; single oral dose 480 mg as free base equivalent) [ng/mL] | AUC0-∞ ([4]; single oral dose 600 mg free base equivalent, mean, n=6) [ng·h/mL] | AUGτ ([5]; human, 5 mg free base equivalent once daily oral) [ng·h/mL] | AUGτ ([5]; human, 25 mg free base equivalent once daily oral) [ng·h/mL] | AUGτ ([5]; human, 100 mg free base equivalent once daily oral) [ng·h/mL] | relation of steady-state exposure (Ctrough, AUCτ, Cmax,ss, Cav) to dose ([5]; human, 5, 25, 100 mg once daily) | relation of AUC0-24 h and Cmax at day 1 to dose ([5]; human, 5, 25, 100 mg, after the first administration) | accumulation ratio R for both AUC and Cmax ([5]; human, all doses applied (5, 25, 100 mg once daily)) | Compound | suppression of murine HSV skin infection [1] | safety and tolerability [2] | gender-related difference in exposure ([4]; single dose of 80 mg as free base equivalent, after normalization to body weight)
– | – | – | – | – | – | – | – | – | – | – | Cc1nc(N(C)C(=O)Cc2ccc(-c3ccccn3)cc2)sc1S(N)(=O)=O [free base, N-[5-(aminosulfonyl)-4-methyl-1,3-thiazol-2-yl]-N-methyl-2-[4-(2-pyridinyl)phenyl]acetamide] | completely suppressed the murine infection | safe and well tolerated | –
up to 170 °C | linearly related to doses | dose-proportional increase | 6921 ± 2190 | 320800 | 5094 | 23430 | 108800 | dose-proportional increase | dose-proportional increases | ~5 | CS(=O)(=O)O.Cc1nc(N(C)C(=O)Cc2ccc(-c3ccccn3)cc2)sc1S(N)(=O)=O [mono mesylate monohydrate, N-[5-(aminosulfonyl)-4-methyl-1,3-thiazol-2-yl]-N-methyl-2-[4-(2-pyridinyl)-phenyl]acetamide mono methanesulfonic acid monohydrate] | – | – | No clinical relevant gender-related difference
